Values of other authors in US11071781B2, “Combination of local and systemic immunomodulative therapies for enhanced treatment of cancer” (Provectus Pharmatech, Inc., priority 2011, dated 2021).
Several values for one entry are separate records, joined by “and”; a condition that tells them apart may be missing. Identical values can stand only once. Like-named read-outs stand apart in the source and are kept apart here.

Legend:
[1] = tested on: melanoma; settings: for toxicity and side effects: patients
[2] = tested on: cancer cells; settings: previous work, WO 02/05812
[3] = intralesional therapy, melanoma patients

Molecule: bleomycin [reference compound]
- efficacy (in words) ([1]; single electrochemotherapy treatment, intralesional): Substantial efficacy

Molecule: IFN-α
- complete response (CR) [1, 3]: 31%
- objective response rate (ORR) [1, 3]: 45%
- partial response (PR) [1, 3]: 14%
- toxicity and side effects ([1]; intralesional therapy): significant toxicity and side effects

Molecule: O=C1OC2(c3cc(I)c(O)c(I)c3Oc3c2cc(I)c(O)c3I)c2c(Cl)c(Cl)c(Cl)c(Cl)c21 [rose bengal, 4,5,6,7-tetrachloro-2′,4′,5′,7′-tetraiodofluorescein]
- uptake into cancer cells versus normal cells [2]: preferential uptake into cancer cells but is essentially excluded from normal cells

Molecule: N.N.[Cl][Pt][Cl] [cisplatin, reference compound]
- objective response rate (ORR) [1, 3]: 38% and 53%
- ORR ([1]; lesions having a median diameter of 3.0 cm): 44%
- ORR ([1]; lesions with a median diameter of 0.6 cm): 53%

B1: IFN-γ: interferon-gamma, non-specific cytokine (protein, UniProt P01579 24-161, looked up)
Interferon gamma: QDPYVKEAENLKKYFNAGHSDVADNGTLFLGILKNWKEESDRKIMQSQIVSFYFKLFKNFKDDQSIQKSVETIKEDMNVKFFNSNKKKRDDFEKLTNYSVTDLNVQRKAIHELIQVMAELSPAAKTGKRKRSQMLFRG
- response to IL therapy (in words) ([1]; intralesional interferon): either no result or transient response
- toxicity and side effects ([1]; intralesional therapy): significant toxicity and side effects
